Assay [1] has as its target T1, human mAChR M1 (Homo sapiens, UniProt P11229).
T1 construct: host or cells: CHO-K1 cells (ATCC), stably transfected using Lipofectamine2000
T1 sequence (P11229 1-460): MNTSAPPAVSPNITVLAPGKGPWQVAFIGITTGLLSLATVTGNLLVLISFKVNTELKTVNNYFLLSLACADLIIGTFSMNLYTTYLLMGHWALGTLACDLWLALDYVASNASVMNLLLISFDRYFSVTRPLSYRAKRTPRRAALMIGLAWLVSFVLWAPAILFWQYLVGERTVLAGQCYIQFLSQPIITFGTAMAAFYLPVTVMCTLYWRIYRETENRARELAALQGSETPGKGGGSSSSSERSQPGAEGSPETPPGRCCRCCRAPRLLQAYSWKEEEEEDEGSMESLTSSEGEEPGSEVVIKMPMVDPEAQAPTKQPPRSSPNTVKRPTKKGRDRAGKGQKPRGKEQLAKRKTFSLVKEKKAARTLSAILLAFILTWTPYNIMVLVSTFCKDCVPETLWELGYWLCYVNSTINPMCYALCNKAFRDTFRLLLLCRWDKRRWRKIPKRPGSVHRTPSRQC
In words: mAChR M1 cell-based functional assay (calcium mobilization), agonist activity upon compound addition. Particulars: CHO-K1 cells expressing hM1; for pEC50: compound alone, before acetylcholine addition; for Emax: relative to the maximum for acetylcholine. Put shortly: (§1)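 Fluorescence ratio calcium read-out (Fluo-4 AM, FDSS 6000) in human M1-expressing CHO-K1 cells. Agonist activity taken as concentration-dependent rise after compound addition; potentiation as enhancement of a subsequent EC20 acetylcholine challenge. Curves from 11-point threefold dilutions fitted by four-parameter logistic; Emax expressed versus acetylcholine maximum.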

For assay [2], the target named is T1, human mAChR M1. The assay is described as follows: mAChR M1 cell-based functional assay (calcium mobilization), PAM activity: increase in the EC20 acetylcholine response. The settings on record: CHO-K1 cells expressing hM1; potentiation of EC20 acetylcholine response. The gist of the method:
as §1

pEC50: −log10 of the molar value. A value given as a limit tells only on which side of the number the result lay.

Turning to `Cn1ccc(-c2ccc(Cn3cc(C(=O)N[C@H]4CCOC[C@@H]4O)c4nccn4c3=O)c(F)c2)n1` [Compound B1, 6-(2-fluoro-4-(1-methyl-1H-pyrazol-3-yl)benzyl)-N-((3R,4S)-3-hydroxytetrahydro-2H-pyran-4-yl)-5-oxo-5,6-dihydroimidazo[1,2-c]pyrimidine-8-carboxamide], in assay [1], the pEC50 (in general, the negative decadic logarithm of the EC50, by convention in mol/L) was 5.52 and the Emax (as a rule, the greatest response seen or fitted, relative to the assay's reference) came out at 55%. In assay [2], the pEC50 was 6.89 and the Emax was found to be 67%.

For `Cn1ccc(-c2ccc(Cn3cc(C(=O)N[C@H]4CCCC[C@@H]4O)c4nccn4c3=O)c(F)c2)n1` [Compound B2, 6-(2-fluoro-4-(1-methyl-1H-pyrazol-3-yl)benzyl)-N-((1S,2S)-2-hydroxycyclohexyl)-5-oxo-5,6-dihydroimidazo[1,2-c]pyrimidine-8-carboxamide], in assay [1], the pEC50 is 5.43 and the Emax is 60%. Moreover, in assay [2], the pEC50 is 7.02 and the Emax turned out to be 68%.

Turning to `Cn1ccc(-c2ccc(Cn3cc(C(=O)N[C@H]4CCC[C@@H]4O)c4nccn4c3=O)c(F)c2)n1` [Compound B3, 6-(2-fluoro-4-(1-methyl-1H-pyrazol-3-yl)benzyl)-N-((1S,2S)-2-hydroxycyclopentyl)-5-oxo-5,6-dihydroimidazo[1,2-c]pyrimidine-8-carboxamide], the Emax in assay [1] came to 33%. Also, in assay [2], the pEC50 was 6.27 and the Emax amounted to 67%.

In the case of `Cn1ccc(-c2ccc(Cn3cc(C(=O)N[C@@H]4CC[C@H]4O)c4nccn4c3=O)c(F)c2)n1` [Compound B4, 6-(2-fluoro-4-(1-methyl-1H-pyrazol-3-yl)benzyl)-N-((1R,2R)-2-hydroxycyclobutyl)-5-oxo-5,6-dihydroimidazo[1,2-c]pyrimidine-8-carboxamide], in assay [1], the pEC50 was < 5.00 and the Emax was < 5%. Besides, in assay [2], the pEC50 is 5.49 and the Emax turned out to be 52%.

Consider `Cn1cc(-c2ccc(Cn3cc(C(=O)N[C@H]4CCOC[C@@H]4O)c4nccn4c3=O)c(F)c2)cn1` [Compound B5, 6-(2-fluoro-4-(1-methyl-1H-pyrazol-4-yl)benzyl)-N-((3R,4S)-3-hydroxytetrahydro-2H-pyran-4-yl)-5-oxo-5,6-dihydroimidazo[1,2-c]pyrimidine-8-carboxamide], for which, in assay [1], the pEC50 is 6.82 and the Emax stood at 62%. For the same compound, in assay [2], the pEC50 was 7.34 and the Emax was determined as 68%.

For the compound `Cn1cc(-c2ccc(Cn3cc(C(=O)N[C@H]4CCCC[C@@H]4O)c4nccn4c3=O)c(F)c2)cn1` [Compound B6, 6-(2-fluoro-4-(1-methyl-1H-pyrazol-4-yl)benzyl)-N-((1S,2S)-2-hydroxycyclohexyl)-5-oxo-5,6-dihydroimidazo[1,2-c]pyrimidine-8-carboxamide], the pEC50 is 5.81 in assay [1] and 7.43 in assay [2]. For the same compound, the maximal response (Emax) in assay [1] is 63%; in assay [2], 74%.

For `Cn1cc(-c2ccc(Cn3cc(C(=O)N[C@H]4CCC[C@@H]4O)c4nccn4c3=O)c(F)c2)cn1` [Compound B7, 6-(2-fluoro-4-(1-methyl-1H-pyrazol-4-yl)benzyl)-N-((1S,2S)-2-hydroxycyclopentyl)-5-oxo-5,6-dihydroimidazo[1,2-c]pyrimidine-8-carboxamide], the Emax in assay [1] is 48%. For the same compound, in assay [2], the pEC50 is 6.62 and the Emax is 73%.

On to `Cn1cc(-c2ccc(Cn3cc(C(=O)N[C@@H]4CC[C@H]4O)c4nccn4c3=O)c(F)c2)cn1` [Compound B8, 6-(2-fluoro-4-(1-methyl-1H-pyrazol-4-yl)benzyl)-N-((1R,2R)-2-hydroxycyclobutyl)-5-oxo-5,6-dihydroimidazo[1,2-c]pyrimidine-8-carboxamide], for which the Emax in assay [1] was 29%. Besides, in assay [2], the pEC50 is 5.70 and the Emax is 72%.

On to `Cn1cc(-c2ccc(Cn3cc(C(=O)NC4CC5(COC5)C4)c4nccn4c3=O)c(F)c2)cn1` [Compound B9, 6-(2-fluoro-4-(1-methyl-1H-pyrazol-4-yl)benzyl)-5-oxo-N-(2-oxaspiro[3.3]heptan-6-yl)-5,6-dihydroimidazo[1,2-c]pyrimidine-8-carboxamide], for which, in assay [1], the Emax was 17%. Also, in assay [2], the pEC50 was 5.69 and the Emax stood at 61%.

For the compound `Cn1cc(-c2ccc(Cn3cc(C(=O)N[C@H]4CCOC[C@@H]4O)c4nccn4c3=O)cn2)cn1` [Compound B10, N-((3R,4S)-3-hydroxytetrahydro-2H-pyran-4-yl)-6-((6-(1-methyl-1H-pyrazol-4-yl)pyridin-3-yl)methyl)-5-oxo-5,6-dihydroimidazo[1,2-c]pyrimidine-8-carboxamide], in assay [1], the Emax stood at 41%. Moreover, in assay [2], the pEC50 was 6.32 and the Emax was found to be 60%.

Regarding `Cn1cc(-c2ccc(Cn3cc(C(=O)N[C@H]4CCCC[C@@H]4O)c4nccn4c3=O)cn2)cn1` [Compound B11, N-((1S,2S)-2-hydroxycyclohexyl)-6-((6-(1-methyl-1H-pyrazol-4-yl)pyridin-3-yl)methyl)-5-oxo-5,6-dihydroimidazo[1,2-c]pyrimidine-8-carboxamide], in assay [1], the pEC50 is 5.30 and the Emax came to 45%. Moreover, in assay [2], the pEC50 is 6.68 and the Emax was 63%.

Take `O=C(N[C@H]1CCOC[C@@H]1O)c1cn(Cc2ccc(-n3cccn3)cc2)c(=O)n2ccnc12` [Compound B12, 6-(4-(1H-Pyrazol-1-yl)benzyl)-N-((3R,4S)-3-hydroxytetrahydro-2H-pyran-4-yl)-5-oxo-5,6-dihydroimidazo[1,2-c]pyrimidine-8-carboxamide]: in assay [1], the negative logarithm of the EC50 (pEC50) was 5.22 and the Emax was determined as 55%. Moreover, in assay [2], the pEC50 is 6.42 and the Emax was determined as 67%.

Consider `O=C(N[C@H]1CCCC[C@@H]1O)c1cn(Cc2ccc(-n3cccn3)cc2)c(=O)n2ccnc12` [Compound B13, 6-(4-(1H-pyrazol-1-yl)benzyl)-N-((1S,2S)-2-hydroxycyclohexyl)-5-oxo-5,6-dihydroimidazo[1,2-c]pyrimidine-8-carboxamide], for which the pEC50 in assay [1] is 5.50; in assay [2] it was 7.00. Also, the Emax in assay [1] was 55%; in assay [2], 70%.

With `O=C(N[C@H]1CCC[C@@H]1O)c1cn(Cc2ccc(-n3cccn3)cc2)c(=O)n2ccnc12` [Compound B14, 6-(4-(1H-pyrazol-1-yl)benzyl)-N-((1S,2S)-2-hydroxycyclopentyl)-5-oxo-5,6-dihydroimidazo[1,2-c]pyrimidine-8-carboxamide], in assay [1], the Emax stood at 28%. Besides, in assay [2], the pEC50 was 5.88 and the Emax is 70%.

For `Cn1cc(-c2ccc(Cn3cc(C(=O)N[C@H]4CCCCC[C@@H]4O)c4nccn4c3=O)c(F)c2)cn1` [Compound B15, 6-(2-fluoro-4-(1-methyl-1H-pyrazol-4-yl)benzyl)-N-((1S,2S)-2-hydroxycycloheptyl)-5-oxo-5,6-dihydroimidazo[1,2-c]pyrimidine-8-carboxamide], in assay [1], the pEC50 was 5.53 and the maximal effect (Emax) was found to be 64%. In assay [2], the pEC50 is 7.57 and the Emax came to 70%.

`O=C(N[C@H]1CCCCC[C@@H]1O)c1cn(Cc2ccc(-n3cccn3)cc2)c(=O)n2ccnc12` [Compound B16, 6-(4-(1H-pyrazol-1-yl)benzyl)-N-((1S,2S)-2-hydroxycycloheptyl)-5-oxo-5,6-dihydroimidazo[1,2-c]pyrimidine-8-carboxamide]: in assay [1], the negative logarithm of the EC50 (pEC50) was < 5.00 and the Emax is < 5%. Also, in assay [2], the pEC50 is 6.28 and the Emax is 81%.

For `O=C(N[C@H]1CCOC[C@@H]1O)c1cn(Cc2ccc(-c3cscn3)cc2)c(=O)n2ccnc12` [Compound B17, N-((3R,4S)-3-hydroxytetrahydro-2H-pyran-4-yl)-5-oxo-6-(4-(thiazol-4-yl)benzyl)-5,6-dihydroimidazo[1,2-c]pyrimidine-8-carboxamide], the results for the negative-log EC50 (pEC50) in assay [1] and in assay [2] were < 5.00 and 6.33, respectively. Besides, the results for the Emax in assay [1] and in assay [2] were 24% and 83%, respectively.

Consider `Cn1cc2c(-c3cc(F)c(Cn4cc(C(=O)N[C@H]5CCOC[C@@H]5O)c5nccn5c4=O)c(F)c3)cccc2n1` [Compound B18, 6-(2,6-difluoro-4-(2-methyl-2H-indazol-4-yl)benzyl)-N-((3R,4S)-3-hydroxytetrahydro-2H-pyran-4-yl)-5-oxo-5,6-dihydroimidazo[1,2-c]pyrimidine-8-carboxamide], for which, in assay [1], the negative logarithm of the EC50 (pEC50) was 5.28 and the Emax was found to be 24%. Moreover, in assay [2], the pEC50 was 7.03 and the maximal response (Emax) stood at 84%.

`Cn1cc2c(-c3cc(F)c(Cn4cc(C(=O)N[C@H]5CCCCC[C@@H]5O)c5nccn5c4=O)c(F)c3)cccc2n1` [Compound B19, 6-(2,6-difluoro-4-(2-methyl-2H-indazol-4-yl)benzyl)-N-((1S,2S)-2-hydroxycycloheptyl)-5-oxo-5,6-dihydroimidazo[1,2-c]pyrimidine-8-carboxamide]: the pEC50 in assay [1] is 5.28; in assay [2] it was 6.33. In addition, the results for the Emax in assay [1] and in assay [2] were 51% and 42%, respectively.

The record behind these values is US20220041606A1, “POSITIVE ALLOSTERIC MODULATORS OF THE MUSCARINIC ACETYLCHOLINE RECEPTOR M1” (Vanderbilt University, priority 2020, published 2022).
